Reference: publication PMC4849045, “Hepatoprotective Limonoids from Andiroba (Carapa guianensis)” (International Journal of Molecular Sciences, 2016)
Read-outs that look alike come from different tables or passages of the source.

Legend:
[1] = test system: LPS-activated NO production in mouse peritoneal macrophages; conditions: cited from earlier work; for Inhibition (%) of LPS-activated NO production: mean ± S.E.M. (n = 4); for IC50: mouse peritoneal macrophages, read-out: IC50, inhibition of LPS-activated NO production
[2] = test system: mouse peritoneal macrophages; conditions: mean ± S.E.M. (n = 4), cited from earlier work
[3] = test system: D-GalN/LPS-induced liver injury in mice; assay: D-GalN/LPS-induced liver injury in mice; type: in vivo, mouse; conditions: p.o.; for Mortality: dead/total; for sALT / sAST: mean ± S.E.M.
Experimental: Male ddY mice (Kiwa Laboratory Animal Co., Ltd., Wakayama, Japan) were housed at a constant temperature of 23 ± 2°C and were fed a standard laboratory chow (MF, Oriental Yeast Co., Ltd., Tokyo, Japan). The animals were fasted for 24 h prior to the beginning of the experiment but were allowed free access to tap water. All experiments were performed with conscious mice unless otherwise noted. The experimental protocol was approved by the Experimental Animal Research Committee of Kindai University (KAPR-26-001, 1 April 2014).
The method described by Tiegs et al. was modified and used for this study. Curcumin [36] and silybin were used as reference compounds.

L929 cells = assay: TNF-α-induced cytotoxicity in L929 cells (MTT assay); type: cell-based; conditions: Mus musculus; for inhibition at 1 µM / inhibition at 3 µM / inhibition at 10 µM / inhibition at 30 µM: read-out: Inhibition (%) of TNF-α-induced cytotoxicity
Experimental: The effects of the limonoids (1–17) on the sensitivity of hepatocytes to TNF-α were assessed by measuring TNF-α-induced decreases in the viability of L929 cells, a TNF-α-sensitive cell line, by using the MTT assay. In the absence of a test sample, the cells incubated with 1 ng/mL TNF-α for 44 h were compared with those not incubated with TNF-α.
Assay for the TNF-α-induced cytotoxicity in L929 cells was performed as described previously. Silybin was used as a reference compound [36].

[4] = test system: primary cultured mouse hepatocytes; assay: D-GalN-induced cytotoxicity in primary cultured mouse hepatocytes (MTT assay); conditions: Hepatocyte, read-out: Inhibition (%) of D-GalN-induced cytotoxicity
Experimental: Assay for the D-GalN-induced cytotoxicity in primary cultured mouse hepatocytes was performed as described previously [33, 35, 36].

[5] = 10 µM, # = cytotoxic effects were observed
[6] = 30 µM, # = cytotoxic effects were observed
[7] = 100 µM, # = cytotoxic effects were observed
[8] = L929, 1 µM, 1 ng/mL TNF-α, 44 h, mean ± S.E.M. (n = 4)
[9] = L929, 3 µM, 1 ng/mL TNF-α, 44 h, mean ± S.E.M. (n = 4)
[10] = L929, 10 µM, 1 ng/mL TNF-α, 44 h, mean ± S.E.M. (n = 4)
[11] = L929, 30 µM, 1 ng/mL TNF-α, 44 h, mean ± S.E.M. (n = 4)

| SMILES | Inhibition (%) of LPS-activated NO production ([1]; 3 µM) [%] | Inhibition (%) of LPS-activated NO production ([1]; 10 µM) [%] | Inhibition (%) of LPS-activated NO production ([1]; 30 µM) [%] | Inhibition (%) of LPS-activated NO production ([1]; 100 µM) [%] | IC50 [1] [µM] | cell viability (%) in MTT assay (values in parentheses) ([2]; 3 µM) [%] | cell viability (%) in MTT assay (values in parentheses) [2, 7] [%] | sALT Inhibition (%) ([3]; 25 mg/kg) | sAST Inhibition (%) ([3]; 25 mg/kg) | Mortality ([3]; 25 mg/kg) | sALT ([3]; 25 mg/kg) [Karmen Unit] | sAST ([3]; 25 mg/kg) [Karmen Unit] | sALT Inhibition (%) ([3]; 50 mg/kg) | sAST Inhibition (%) ([3]; 50 mg/kg) | cell viability (%) in MTT assay (values in parentheses) ([2]; 10 µM) [%] | cell viability (%) in MTT assay (values in parentheses) ([2]; 30 µM) [%] | inhibition at 3 µM [4] [%] | inhibition at 10 µM [4] [%] | inhibition at 30 µM [4] [%] | inhibition at 100 µM [4] [%] | other results |
| --- | --- | --- | --- | --- | --- | --- | --- | --- | --- | --- | --- | --- | --- | --- | --- | --- | --- | --- | --- | --- | --- |
| O=C(/C=C/c1ccc(O)c(O)c1)OCCc1ccccc1 [CAPE, caffeic acid phenethyl ester, reference compound] | 5.9 ± 5.2 | 44.4 ± 3.2 | 86.2 ± 1.1 | 99.6 ± 0.1 | 11 | 95.4 ± 0.7 | 53.0 ± 1.4 | – | – | – | – | – | – | – | – | – | – | – | – | – | cell viability (%) in MTT assay (values in parentheses) [2, 5]: 70.0 ± 4.0%; cell viability (%) in MTT assay (values in parentheses) [2, 6]: 71.4 ± 6.0% |
| CC(=O)O[C@@H]1C2C(C)(C)C(=O)C=C[C@]2(C)C2CC[C@@]3(C)[C@H](c4ccoc4)OC(=O)[C@H]4O[C@]43[C@]2(C)[C@@H]1OC(C)=O (stereo partly drawn) [compound 2, 6α-acetoxygedunin] | 16.9 ± 1.7 | 67.6 ± 4.6 | 88.4 ± 3.5 | 99.6 ± 0.2 | 7.9 | 96.8 ± 1.2 | 53.6 ± 5.1 | 63.7 | 54.7 | 0/7 | 3120 ± 830 | 2384 ± 579 | 72.2 | 67.9 | 102.3 ± 2.2 | 92.5 ± 1.7 | -2.6 ± 1 | -1.9 ± 0.3 | -2.5 ± 0.7 | -1.8 ± 0.6 | Mortality ([3]; 50 mg/kg): 0/7; sALT ([3]; 50 mg/kg): 2397 ± 873 Karmen Unit; sAST ([3]; 50 mg/kg): 1696 ± 580 Karmen Unit; inhibition at 1 µM (L929 cells; [8]): 10.9 ± 1%; inhibition at 3 µM (L929 cells; [9]): 23.2 ± 1.8%; inhibition at 10 µM (L929 cells; [10]): 36.3 ± 2.1%; inhibition at 30 µM (L929 cells; [11]): 37.3 ± 1.4% |
| CC1(C)C(=O)C=C[C@@]2(C)C1C[C@@H](O)[C@]1(C)C2CC[C@@]2(C)[C@H](c3ccoc3)OC(=O)[C@H]3O[C@]321 (stereo partly drawn) [compound 4, 7-deacetoxy-7α-hydroxygedunin] | 15.7 ± 4.6 | 55.7 ± 4.0 | 98.8 ± 0.4 | 100.2 ± 0.2 | 8.7 | 110.3 ± 5.9 | 2.6 ± 0.5 | – | – | – | – | – | – | – | 106.6 ± 3.1 | 96.3 ± 4.6 | -2 ± 1.4 | -6.3 ± 0.5 | -8 ± 0.4 | -4.1 ± 0.7 | inhibition at 3 µM (L929 cells; L929, 44 h): -6.5 ± 2.4%; inhibition at 10 µM (L929 cells; L929, 44 h): 2.7 ± 2.3%; inhibition at 30 µM (L929 cells; L929, 44 h): 36.5 ± 1.8% |
| C=C1[C@@H]2CC[C@@]3(C)[C@H](c4ccoc4)OC(=O)C[C@]13O[C@H]1CC(=O)C(C)(C)[C@H](CC(=O)OC)[C@]12C [compound 7, methyl angolensate] | 10.1 ± 4.2 | 20.0 ± 8.1 | 42.2 ± 3.5 | 24.0 ± 4.2 | > 100 | 108.8 ± 11.0 | 78.1 ± 5.3 | – | – | – | – | – | – | – | 108.8 ± 5.5 | 111.0 ± 4.5 | -2.1 ± 1.2 | -7.5 ± 0.9 | -6.3 ± 0.7 | -6.6 ± 1 | inhibition at 1 µM (L929 cells; L929, 44 h): -0.5 ± 3.5%; inhibition at 3 µM (L929 cells; L929, 44 h): 0.6 ± 2.9%; inhibition at 10 µM (L929 cells; L929, 44 h): 13.3 ± 2.6%; inhibition at 30 µM (L929 cells; L929, 44 h): 24.6 ± 2.9% |
| CC1(C)C(=O)C=C[C@@]2(C)C1CC(=O)[C@]1(C)C2CC[C@@]2(C)[C@H](c3ccoc3)OC(=O)[C@H]3O[C@]321 (stereo partly drawn) [compound 3, 7-deacetoxy-7-oxogedunin] | 7.4 ± 5.2 | 40.9 ± 4.7 | 94.0 ± 0.8 | 88.1 ± 2.1 | 12.8 | 100.3 ± 3.9 | 83.7 ± 1.2 | 66.3 | 60.3 | 0/7 | 2899 ± 1024 | 2093 ± 742 | 70.2 | 66.7 | 98.9 ± 3.2 | 98.8 ± 7.4 | -4.6 ± 0.5 | -8.2 ± 0.9 | -8.3 ± 1.1 | -8.9 ± 0.6 | Mortality ([3]; 50 mg/kg): 1/7; sALT ([3]; 50 mg/kg): 2572 ± 903 Karmen Unit; sAST ([3]; 50 mg/kg): 1759 ± 579 Karmen Unit; IC50 (L929 cells; L929, 44 h, read-out: IC50, inhibition of TNF-α-induced decrease in cell viability): 7.3 µM; inhibition at 1 µM (L929 cells; L929, 44 h): 5.8 ± 1.5%; inhibition at 3 µM (L929 cells; L929, 44 h): 26.7 ± 4.5%; inhibition at 10 µM (L929 cells; L929, 44 h): 58.6 ± 7.2%; inhibition at 30 µM (L929 cells; L929, 44 h): 68.7 ± 4.8% |
| CC(=O)O[C@@H]1C[C@H]2C(C)(C)C(=O)C=C[C@]2(C)[C@H]2CC[C@@]3(C)[C@H](c4ccoc4)OC(=O)[C@H]4O[C@]43[C@@]21C [compound 1, gedunin] | 25.1 ± 2.5 | 84.5 ± 2.3 | 101.8 ± 0.6 | 100.9 ± 0.4 | 4.6 | 102.2 ± 5.3 | 3.0 ± 0.4 | 65.7 | 56.2 | 0/7 | 2950 ± 710 | 2304 ± 651 | 67.2 | 63.5 | 119.5 ± 5.3 | 94.8 ± 1.4 | -8.4 ± 1.9 | -3.9 ± 0.4 | -3.2 ± 0.9 | -5.2 ± 0.2 | Mortality ([3]; 50 mg/kg): 0/7; sALT ([3]; 50 mg/kg): 2824 ± 754 Karmen Unit; sAST ([3]; 50 mg/kg): 1923 ± 576 Karmen Unit; inhibition at 1 µM (L929 cells; [8]): 4.5 ± 1.9%; inhibition at 3 µM (L929 cells; [9]): 21.8 ± 3.7%; inhibition at 10 µM (L929 cells; [10]): 38.1 ± 3.8%; inhibition at 30 µM (L929 cells; [11]): 36.5 ± 4.1% |
| CC(=O)O[C@@H]1[C@H](O)C2C(C)(C)C(=O)C=C[C@]2(C)C2CC[C@@]3(C)[C@H](c4ccoc4)OC(=O)[C@H]4O[C@]43[C@@]21C (stereo partly drawn) [compound 6, 6α-hydroxygedunin] | 7.7 ± 7.1 | 20.7 ± 4.3 | 64.0 ± 3.1 | 97.3 ± 0.3 | 19.1 | 88.4 ± 3.0 | 82.2 ± 4.2 | – | – | – | – | – | – | – | 87.6 ± 4.0 | 90.4 ± 2.6 | -7.2 ± 2.4 | -9.4 ± 0.8 | -0.1 ± 0.7 | -2.8 ± 0.5 | inhibition at 1 µM (L929 cells; [8]): 8.1 ± 1.9%; inhibition at 3 µM (L929 cells; [9]): 6.7 ± 1.5%; inhibition at 10 µM (L929 cells; [10]): 12.1 ± 3%; inhibition at 30 µM (L929 cells; [11]): 28.3 ± 1.7% |
| [H]/N=C(/NC)NCCC[C@H](N)C(=O)O [L-NMMA, N^G-monomethyl-L-arginine, reference compound] | 1.4 ± 2.8 | 19.9 ± 2.8 | 43.0 ± 2.1 | 70.9 ± 1.6 | 36 | 101.1 ± 5.7 | 106.4 ± 4.6 | – | – | – | – | – | – | – | – | – | – | – | – | – | cell viability (%) in MTT assay (values in parentheses) [2, 5]: 100.7 ± 6.2%; cell viability (%) in MTT assay (values in parentheses) [2, 6]: 102.6 ± 4.2% |
